# The kinase profiling compilation of Christmann-Franck et al. (2016)
# Legend:
# Assay in all cases: radiometric filter-binding kinase assay, Kinase HotSpot
# Details in all cases: compound 0.5 µM; ATP 10 µM
# PRKCZ (human) = PRKCZ (human) (UniProt Q05513)
# PKN1 (human) = PKN1 (human) (UniProt Q16512)
# AURKB (human) = AURKB (human) (UniProt Q96GD4)
# MYLK2 (human) = MYLK2 (human) (UniProt Q9H1R3)
# PAK6 (human) = PAK6 (human) (UniProt Q9NQU5)
# CLK4 (human) = CLK4 (human) (UniProt Q9HAZ1)
# RPS6KA5 KD2 (human) = RPS6KA5 KD2 (human) (UniProt O75582)
# EPHB1 (human) = EPHB1 (human) (UniProt P54762)
# IRAK1 (human) = IRAK1 (human) (UniProt P51617)
# PRKCB1 (human) = PRKCB1 (human) (UniProt P05771)
# MAPK3 (human) = MAPK3 (human) (UniProt P27361)
# CAMK2G (human) = CAMK2G (human) (UniProt Q13555)
# WNK3 (human) = WNK3 (human) (UniProt Q9BYP7)
# MARK1 (human) = MARK1 (human) (UniProt Q9P0L2)
# JAK3 JH1 JH2 (human) = JAK3 JH1 JH2 (human) (UniProt P52333)
# MARK3 (human) = MARK3 (human) (UniProt P27448)
# ERBB4 (human) = ERBB4 (human) (UniProt Q15303)
# PHKG2 (human) = PHKG2 (human) (UniProt P15735)
# MAP3K9 (human) = MAP3K9 (human) (UniProt P80192)
# MAPK13 (human) = MAPK13 (human) (UniProt O15264)
# PNCK (human) = PNCK (human) (UniProt Q6P2M8)
# FRK (human) = FRK (human) (UniProt P42685)
# PRKCG (human) = PRKCG (human) (UniProt P05129)
# PIM2 (human) = PIM2 (human) (UniProt Q9P1W9)
# PLK3 (human) = PLK3 (human) (UniProt Q9H4B4)
# WEE1 (human) = WEE1 (human) (UniProt P30291)
# PTK2 (human) = PTK2 (human) (UniProt Q05397)
# MARK2 (human) = MARK2 (human) (UniProt Q7KZI7)
# DAPK3 (human) = DAPK3 (human) (UniProt O43293)
# FGFR3 (human) = FGFR3 (human) (UniProt P22607)
# ULK1 (human) = ULK1 (human) (UniProt O75385)
# GSK3B (human) = GSK3B (human) (UniProt P49841)
# FLT3 (human) = FLT3 (human) (UniProt P36888)
# FGFR2 (human) = FGFR2 (human) (UniProt P21802)
# MAPK10 (human) = MAPK10 (human) (UniProt P53779)
# SIK2 (human) = SIK2 (human) (UniProt Q9H0K1)
# AURKA (human) = AURKA (human) (UniProt O14965)
# GRK7 (human) = GRK7 (human) (UniProt Q8WTQ7)
# MAPK14 (human) = MAPK14 (human) (UniProt Q16539)
# PHKG1 (human) = PHKG1 (human) (UniProt Q16816)
# INSRR (human) = INSRR (human) (UniProt P14616)
# GRK4 (human) = GRK4 (human) (UniProt P32298)
# MARK3 (human), sequence (P27448 whole entry, looked up): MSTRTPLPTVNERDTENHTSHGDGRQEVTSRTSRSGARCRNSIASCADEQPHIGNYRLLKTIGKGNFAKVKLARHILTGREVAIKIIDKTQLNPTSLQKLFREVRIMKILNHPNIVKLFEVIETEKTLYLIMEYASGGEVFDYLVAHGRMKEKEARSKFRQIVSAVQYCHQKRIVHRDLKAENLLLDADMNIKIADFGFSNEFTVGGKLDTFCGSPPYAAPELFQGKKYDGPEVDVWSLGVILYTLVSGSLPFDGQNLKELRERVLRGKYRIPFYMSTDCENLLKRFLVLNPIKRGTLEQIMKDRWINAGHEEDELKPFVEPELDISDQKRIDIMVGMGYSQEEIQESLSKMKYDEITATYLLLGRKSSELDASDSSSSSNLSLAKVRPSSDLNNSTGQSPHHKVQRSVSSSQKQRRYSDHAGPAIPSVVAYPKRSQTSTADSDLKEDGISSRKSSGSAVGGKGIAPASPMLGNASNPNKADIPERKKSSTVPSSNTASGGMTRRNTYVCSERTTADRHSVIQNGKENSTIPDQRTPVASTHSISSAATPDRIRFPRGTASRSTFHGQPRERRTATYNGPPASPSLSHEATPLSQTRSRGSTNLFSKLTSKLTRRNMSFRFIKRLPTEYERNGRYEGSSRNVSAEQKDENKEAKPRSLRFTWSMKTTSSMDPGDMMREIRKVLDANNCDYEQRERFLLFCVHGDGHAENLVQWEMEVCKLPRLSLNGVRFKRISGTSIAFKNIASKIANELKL
# FGFR3 (human), sequence (P22607 whole entry, looked up): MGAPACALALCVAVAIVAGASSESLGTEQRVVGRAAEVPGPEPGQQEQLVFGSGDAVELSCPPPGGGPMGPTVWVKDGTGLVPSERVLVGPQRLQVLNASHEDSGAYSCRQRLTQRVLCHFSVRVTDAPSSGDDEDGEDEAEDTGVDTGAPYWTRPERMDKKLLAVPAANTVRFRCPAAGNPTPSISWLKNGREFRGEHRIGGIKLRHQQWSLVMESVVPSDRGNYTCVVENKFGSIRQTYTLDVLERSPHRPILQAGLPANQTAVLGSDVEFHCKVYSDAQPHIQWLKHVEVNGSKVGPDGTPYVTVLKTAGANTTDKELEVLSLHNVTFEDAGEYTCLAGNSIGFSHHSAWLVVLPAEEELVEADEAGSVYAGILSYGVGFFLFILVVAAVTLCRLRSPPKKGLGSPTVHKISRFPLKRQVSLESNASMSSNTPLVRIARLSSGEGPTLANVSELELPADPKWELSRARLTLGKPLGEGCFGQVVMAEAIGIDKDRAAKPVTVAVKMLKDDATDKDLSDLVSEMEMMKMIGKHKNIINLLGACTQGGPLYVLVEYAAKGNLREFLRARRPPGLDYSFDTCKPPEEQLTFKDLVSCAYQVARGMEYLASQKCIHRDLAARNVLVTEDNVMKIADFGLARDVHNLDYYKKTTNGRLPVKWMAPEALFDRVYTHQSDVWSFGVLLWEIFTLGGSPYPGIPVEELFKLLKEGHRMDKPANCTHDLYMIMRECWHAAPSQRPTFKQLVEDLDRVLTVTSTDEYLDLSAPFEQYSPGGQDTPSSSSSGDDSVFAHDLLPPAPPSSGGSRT
# ERBB4 (human), sequence (Q15303 whole entry, looked up): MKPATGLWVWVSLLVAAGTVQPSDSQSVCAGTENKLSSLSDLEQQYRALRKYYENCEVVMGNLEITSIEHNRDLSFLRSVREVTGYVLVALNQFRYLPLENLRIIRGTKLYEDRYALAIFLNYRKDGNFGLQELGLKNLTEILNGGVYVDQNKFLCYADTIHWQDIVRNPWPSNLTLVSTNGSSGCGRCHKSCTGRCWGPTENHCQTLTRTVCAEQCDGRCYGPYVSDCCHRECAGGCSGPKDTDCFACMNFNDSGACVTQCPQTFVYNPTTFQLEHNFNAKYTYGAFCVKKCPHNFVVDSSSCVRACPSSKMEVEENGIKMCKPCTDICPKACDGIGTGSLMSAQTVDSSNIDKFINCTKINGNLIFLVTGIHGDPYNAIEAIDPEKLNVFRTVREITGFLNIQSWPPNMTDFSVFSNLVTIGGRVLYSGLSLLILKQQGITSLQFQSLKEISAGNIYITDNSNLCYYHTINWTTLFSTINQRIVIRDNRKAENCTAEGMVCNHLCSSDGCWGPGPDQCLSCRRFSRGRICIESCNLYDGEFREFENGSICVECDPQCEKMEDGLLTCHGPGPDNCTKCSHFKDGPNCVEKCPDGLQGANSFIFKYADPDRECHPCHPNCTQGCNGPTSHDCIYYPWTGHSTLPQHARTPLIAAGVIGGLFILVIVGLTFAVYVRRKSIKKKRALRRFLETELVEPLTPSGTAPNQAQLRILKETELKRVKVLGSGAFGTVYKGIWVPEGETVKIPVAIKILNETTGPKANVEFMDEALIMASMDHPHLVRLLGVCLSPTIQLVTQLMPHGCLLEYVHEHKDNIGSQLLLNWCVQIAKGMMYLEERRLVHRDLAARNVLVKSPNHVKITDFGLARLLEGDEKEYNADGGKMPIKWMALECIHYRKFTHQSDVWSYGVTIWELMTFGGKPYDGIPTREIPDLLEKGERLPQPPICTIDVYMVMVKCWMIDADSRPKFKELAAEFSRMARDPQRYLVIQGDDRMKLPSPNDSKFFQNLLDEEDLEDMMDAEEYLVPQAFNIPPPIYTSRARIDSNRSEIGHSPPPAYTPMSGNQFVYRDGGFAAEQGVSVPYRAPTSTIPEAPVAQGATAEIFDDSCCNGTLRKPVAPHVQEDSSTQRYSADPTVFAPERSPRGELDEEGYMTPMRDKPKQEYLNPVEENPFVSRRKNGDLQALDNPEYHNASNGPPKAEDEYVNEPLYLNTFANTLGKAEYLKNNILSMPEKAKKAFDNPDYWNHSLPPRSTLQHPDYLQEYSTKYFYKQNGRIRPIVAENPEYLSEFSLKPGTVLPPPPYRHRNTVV
# PHKG1 (human), sequence (Q16816 whole entry, looked up): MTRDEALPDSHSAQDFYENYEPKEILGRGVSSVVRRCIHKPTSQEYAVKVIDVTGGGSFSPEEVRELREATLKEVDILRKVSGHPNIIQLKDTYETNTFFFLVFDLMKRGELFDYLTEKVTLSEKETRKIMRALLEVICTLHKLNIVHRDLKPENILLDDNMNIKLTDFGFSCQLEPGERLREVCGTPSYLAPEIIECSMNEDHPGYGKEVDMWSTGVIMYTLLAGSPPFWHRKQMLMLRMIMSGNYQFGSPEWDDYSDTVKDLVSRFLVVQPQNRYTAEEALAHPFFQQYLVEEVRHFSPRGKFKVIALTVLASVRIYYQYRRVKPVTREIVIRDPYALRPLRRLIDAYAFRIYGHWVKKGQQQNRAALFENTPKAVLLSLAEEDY
# CAMK2G (human), sequence (Q13555 whole entry, looked up): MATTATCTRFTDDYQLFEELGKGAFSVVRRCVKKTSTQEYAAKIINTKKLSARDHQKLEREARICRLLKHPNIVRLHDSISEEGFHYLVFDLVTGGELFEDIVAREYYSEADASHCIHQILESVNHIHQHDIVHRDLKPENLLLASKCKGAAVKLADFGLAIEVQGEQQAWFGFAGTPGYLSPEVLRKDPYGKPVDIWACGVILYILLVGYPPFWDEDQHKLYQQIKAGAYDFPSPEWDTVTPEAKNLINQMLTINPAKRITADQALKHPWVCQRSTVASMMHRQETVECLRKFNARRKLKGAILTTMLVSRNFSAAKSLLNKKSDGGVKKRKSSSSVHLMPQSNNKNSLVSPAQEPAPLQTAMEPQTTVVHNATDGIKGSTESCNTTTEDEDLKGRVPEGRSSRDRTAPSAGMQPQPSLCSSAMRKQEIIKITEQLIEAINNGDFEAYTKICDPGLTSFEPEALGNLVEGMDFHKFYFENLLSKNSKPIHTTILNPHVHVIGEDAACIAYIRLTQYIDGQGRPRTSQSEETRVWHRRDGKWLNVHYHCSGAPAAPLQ
# PIM2 (human), sequence (Q9P1W9 whole entry, looked up): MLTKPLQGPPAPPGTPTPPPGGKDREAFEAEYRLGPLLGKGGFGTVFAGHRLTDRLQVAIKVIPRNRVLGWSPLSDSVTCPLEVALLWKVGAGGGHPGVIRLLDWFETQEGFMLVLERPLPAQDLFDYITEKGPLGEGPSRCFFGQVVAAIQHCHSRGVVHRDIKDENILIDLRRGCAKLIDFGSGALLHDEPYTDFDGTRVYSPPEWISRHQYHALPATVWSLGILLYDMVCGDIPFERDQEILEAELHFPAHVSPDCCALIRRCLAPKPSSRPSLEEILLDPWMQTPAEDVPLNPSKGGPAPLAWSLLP
# AURKB (human), sequence (Q96GD4 whole entry, looked up): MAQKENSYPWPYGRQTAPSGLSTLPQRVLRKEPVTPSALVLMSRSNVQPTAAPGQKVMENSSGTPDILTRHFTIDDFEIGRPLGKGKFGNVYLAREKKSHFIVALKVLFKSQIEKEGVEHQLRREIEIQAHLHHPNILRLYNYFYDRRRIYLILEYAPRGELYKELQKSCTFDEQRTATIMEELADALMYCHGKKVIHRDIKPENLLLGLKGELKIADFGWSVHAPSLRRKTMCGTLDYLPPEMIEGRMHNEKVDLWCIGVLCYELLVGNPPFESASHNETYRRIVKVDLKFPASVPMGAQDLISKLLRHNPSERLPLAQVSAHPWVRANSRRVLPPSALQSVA
# MAPK13 (human), sequence (O15264 whole entry, looked up): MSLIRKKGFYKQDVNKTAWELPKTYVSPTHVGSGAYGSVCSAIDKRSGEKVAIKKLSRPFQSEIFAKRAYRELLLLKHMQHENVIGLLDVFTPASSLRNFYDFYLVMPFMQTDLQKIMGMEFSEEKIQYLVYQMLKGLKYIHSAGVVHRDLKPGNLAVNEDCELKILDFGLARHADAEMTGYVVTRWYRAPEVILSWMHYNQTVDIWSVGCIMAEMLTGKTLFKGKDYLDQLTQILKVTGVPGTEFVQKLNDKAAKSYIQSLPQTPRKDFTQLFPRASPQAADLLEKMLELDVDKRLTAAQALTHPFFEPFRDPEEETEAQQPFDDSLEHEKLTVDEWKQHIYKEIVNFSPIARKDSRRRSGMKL
compound,measurement,setting,value
Oc1ccc(Nc2nc(-c3ccc(Cl)cc3)cs2)cc1,residual activity,PRKCZ (human),105%
same,residual activity,PKN1 (human),99.5%
same,residual activity,AURKB (human),102%
same,residual activity,MYLK2 (human),97.1%
same,residual activity,PAK6 (human),100%
same,residual activity,CLK4 (human),98.8%
same,residual activity,RPS6KA5 KD2 (human),109%
same,residual activity,EPHB1 (human),105%
same,residual activity,IRAK1 (human),123%
same,residual activity,PRKCB1 (human),101%
same,residual activity,MAPK3 (human),103%
same,residual activity,CAMK2G (human),90.6%
same,residual activity,WNK3 (human),98.7%
same,residual activity,MARK1 (human),93.7%
same,residual activity,JAK3 JH1 JH2 (human),92.2%
same,residual activity,MARK3 (human),95.3%
same,residual activity,ERBB4 (human),83.3%
same,residual activity,PHKG2 (human),99.9%
same,residual activity,MAP3K9 (human),80.9%
same,residual activity,MAPK13 (human),107%
same,residual activity,PNCK (human),100%
same,residual activity,FRK (human),106%
same,residual activity,PRKCG (human),87.3%
same,residual activity,PIM2 (human),106%
same,residual activity,PLK3 (human),97.4%
same,residual activity,WEE1 (human),93.2%
same,residual activity,PTK2 (human),99.4%
same,residual activity,MARK2 (human),102%
same,residual activity,DAPK3 (human),103%
same,residual activity,FGFR3 (human),96.5%
same,residual activity,ULK1 (human),84.2%
same,residual activity,GSK3B (human),110%
same,residual activity,FLT3 (human),99%
same,residual activity,FGFR2 (human),104%
same,residual activity,MAPK10 (human),101%
same,residual activity,SIK2 (human),90.7%
same,residual activity,AURKA (human),89.4%
same,residual activity,GRK7 (human),109%
same,residual activity,MAPK14 (human),98.6%
same,residual activity,PHKG1 (human),96.5%
same,residual activity,INSRR (human),98.8%
same,residual activity,GRK4 (human),90.5%
O=C1NC(=O)/C(=C\c2ccc3nccnc3c2)S1,residual activity,PRKCZ (human),103%
same,residual activity,PKN1 (human),101%
same,residual activity,AURKB (human),101%
same,residual activity,MYLK2 (human),97.2%
same,residual activity,PAK6 (human),107%
same,residual activity,CLK4 (human),47.5%
same,residual activity,RPS6KA5 KD2 (human),87.8%
same,residual activity,EPHB1 (human),93.4%
same,residual activity,IRAK1 (human),85.5%
same,residual activity,PRKCB1 (human),96.9%
same,residual activity,MAPK3 (human),87.8%
same,residual activity,CAMK2G (human),101%
same,residual activity,WNK3 (human),85.8%
same,residual activity,MARK1 (human),96.2%
same,residual activity,JAK3 JH1 JH2 (human),97.2%
same,residual activity,MARK3 (human),94.3%
same,residual activity,ERBB4 (human),99.4%
same,residual activity,PHKG2 (human),97.4%
same,residual activity,MAP3K9 (human),102%
same,residual activity,MAPK13 (human),99.1%
same,residual activity,PNCK (human),101%
same,residual activity,FRK (human),91.7%
same,residual activity,PRKCG (human),105%
same,residual activity,PIM2 (human),100%
same,residual activity,PLK3 (human),97.7%
same,residual activity,WEE1 (human),83.1%
same,residual activity,PTK2 (human),96.5%
same,residual activity,MARK2 (human),93%
same,residual activity,DAPK3 (human),93.3%
same,residual activity,FGFR3 (human),97.3%
same,residual activity,ULK1 (human),100%
same,residual activity,GSK3B (human),93.4%
same,residual activity,FLT3 (human),95.2%
same,residual activity,FGFR2 (human),95%
same,residual activity,MAPK10 (human),96%
same,residual activity,SIK2 (human),102%
same,residual activity,AURKA (human),97.2%
same,residual activity,GRK7 (human),99.8%
same,residual activity,MAPK14 (human),92.9%
same,residual activity,PHKG1 (human),91.3%
same,residual activity,INSRR (human),111%
same,residual activity,GRK4 (human),106%
